Data reported in ChEMBL document CHEMBL5233223, “Dammarane-type leads panaxadiol and protopanaxadiol for drug discovery: Biological activity and structural modification” (Eur J Med Chem, 2020).
Each block holds one molecule with its values, some of them ahead of it.

Columns and labels:
PC-3 = experiment: Antiproliferative activity against human PC-3 cells assessed as cell growth inhibition; format: functional, cell-based
LNCaP = experiment: Antiproliferative activity against human LNCAP cells assessed as cell growth inhibition; format: functional, cell-based
HeLa = experiment: Antiproliferative activity against human HeLa cells assessed as cell growth inhibition; format: functional, cell-based
Hepatitis B virus [1] = experiment: Antiviral activity against Hepatitis B virus infected in human HepG2.2.15 cells assessed as inhibition of HBeAg level by MTT assay; format: functional, organism-based; conditions: HepG2 2.2.15
HepG2 2.2.15 = experiment: Antiproliferative activity against human HepG2.2.15 cells assessed as cell growth inhibition; format: functional, cell-based
Hepatitis B virus [2] = experiment: Antiviral activity against Hepatitis B virus infected in human HepG2.2.15 cells assessed as inhibition of viral DNA replication by MTT assay; format: functional, organism-based; conditions: HepG2 2.2.15
Hepatitis B virus [3] = experiment: Antiviral activity against Hepatitis B virus infected in human HepG2.2.15 cells assessed as inhibition of HBsAg level by MTT assay; format: functional, organism-based; conditions: HepG2 2.2.15
[4] = biological target: 11-beta-hydroxysteroid dehydrogenase 1 (Homo sapiens, UniProt P28845); experiment: Inhibition of human 11beta-HSD1
MCF7 = experiment: Antiproliferative activity against human MCF7 cells assessed as cell growth inhibition; format: functional, cell-based
[5] = biological target: 11-beta-hydroxysteroid dehydrogenase 1 (Mus musculus, UniProt P50172); experiment: Inhibition of mouse 11beta-HSD1
HCT-116 [6] = experiment: Antiproliferative activity against human HCT-116 cells assessed as cell growth inhibition at 200 uM relative to control; format: functional; parameters: scale not given: the % may be the effect or the level left
HCT-116 [7] = experiment: Induction of apoptosis in human HCT-116 cells at 250 uM relative to control; format: functional

Sequence of 11-beta-hydroxysteroid dehydrogenase 1 (Homo sapiens, UniProt P28845) (P28845 whole entry): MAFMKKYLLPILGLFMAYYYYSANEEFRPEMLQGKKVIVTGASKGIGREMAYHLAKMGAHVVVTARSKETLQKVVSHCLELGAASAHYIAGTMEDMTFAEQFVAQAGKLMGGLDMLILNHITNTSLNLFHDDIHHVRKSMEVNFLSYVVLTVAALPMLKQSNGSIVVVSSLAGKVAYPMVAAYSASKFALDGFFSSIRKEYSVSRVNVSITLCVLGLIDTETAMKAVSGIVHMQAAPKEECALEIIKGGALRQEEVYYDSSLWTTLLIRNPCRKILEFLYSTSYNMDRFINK
Sequence of 11-beta-hydroxysteroid dehydrogenase 1 (Mus musculus, UniProt P50172) (P50172 whole entry): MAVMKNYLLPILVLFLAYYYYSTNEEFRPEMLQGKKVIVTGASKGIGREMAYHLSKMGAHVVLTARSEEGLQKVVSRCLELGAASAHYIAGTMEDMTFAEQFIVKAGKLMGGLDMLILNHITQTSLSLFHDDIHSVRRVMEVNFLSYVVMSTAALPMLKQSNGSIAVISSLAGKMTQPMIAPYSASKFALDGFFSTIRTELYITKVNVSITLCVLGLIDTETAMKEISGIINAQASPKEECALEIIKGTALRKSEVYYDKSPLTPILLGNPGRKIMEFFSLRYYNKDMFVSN

Structure (SMILES): CC(C)(O)[C@H]1CC[C@@](C)([C@H]2CC[C@]3(C)C2[C@H](O)CC2[C@@]4(C)CC[C@H](O)C(C)(C)C4CC[C@]23C)O1 (stereo not given in full)
IC50 (HeLa): 4.58 µM

Structure (SMILES): CC1(C)CCC[C@](C)(C2CC[C@]3(C)C2[C@H](O)CC2[C@@]4(C)CC[C@H](OC(=O)CCCC(=O)O)C(C)(C)C4CC[C@]23C)O1 (stereo not given in full)
IC50 (HepG2 2.2.15): 7.27 µM

Structure (SMILES): CC(=O)O[C@@H]1CC2[C@@]3(C)CC[C@H](O)C(C)(C)C3CC[C@@]2(C)[C@]2(C)C(=O)C=CC12 (stereo not given in full)
IC50 [4]: 0.034 µM

Structure (SMILES): CC1(C)CCC[C@](C)(C2CC[C@]3(C)C2[C@H](O)CC2[C@@]4(C)CC[C@H](OC(=O)c5cc(O)c(O)c(O)c5)C(C)(C)C4CC[C@]23C)O1 (stereo not given in full)
IC50 (HepG2 2.2.15): 7.27 µM

Structure (SMILES): CC(=O)Oc1ccccc1C(=O)O[C@H]1CC[C@@]2(C)C(CC[C@]3(C)C2C[C@@H](O)C2C([C@@]4(C)CCCC(C)(C)O4)CC[C@]23C)C1(C)C (stereo not given in full)
IC50 (MCF7): 2.56 µM

Structure (SMILES): CO[C@@H]1CC(=O)[C@]2(C)C1[C@H](OC(C)=O)CC1[C@@]3(C)CC[C@H](O)C(C)(C)C3CC[C@]12C (stereo not given in full)
IC50 [4]: 0.015 µM | IC50 [5]: 3.3 µM

Structure (SMILES): Oc1cc(O)c2c(c1)O[C@H](c1ccc(O)c(O)c1)[C@H](O)C2 [(-)-EPICATECHIN]
Activity (HCT-116 [6]): 17% | Activity (HCT-116 [7]): 9.4%

More lines, main results first:

IC50 (PC-3): 39.4 µM
Structure (SMILES): COc1ccc(/C=C2/C[C@@]3(C)C(CC[C@]4(C)C3C[C@@H](O)C3C([C@@]5(C)CCCC(C)(C)O5)CC[C@]34C)C(C)(C)C2=O)cc1 (stereo not given in full)

IC50 (LNCaP): < 38.9 µM | IC50 (PC-3): 47.3 µM
Structure (SMILES): CC1(C)CCC[C@](C)(C2CC[C@]3(C)C2[C@H](O)CC2[C@@]4(C)C/C(=C/c5cccs5)C(=O)C(C)(C)C4CC[C@]23C)O1 (stereo not given in full)

IC50 (LNCaP): < 38.9 µM | IC50 (PC-3): 11.7 µM
Structure (SMILES): CC1(C)CCC[C@](C)(C2CC[C@]3(C)C2[C@H](O)CC2[C@@]4(C)C/C(=C/c5ccc(O)cc5)C(=O)C(C)(C)C4CC[C@]23C)O1 (stereo not given in full)

IC50 (LNCaP): < 38.9 µM | IC50 (PC-3): 35.4 µM
Structure (SMILES): CC1(C)CCC[C@](C)(C2CC[C@]3(C)C2[C@H](O)CC2[C@@]4(C)C/C(=C/c5ccc(C(F)(F)F)cc5)C(=O)C(C)(C)C4CC[C@]23C)O1 (stereo not given in full)

IC50 (HepG2 2.2.15): 7.27 µM
Structure (SMILES): CC1(C)CCC[C@](C)(C2CC[C@]3(C)C2[C@H](O)CC2[C@@]4(C)CC[C@H](OC(=O)c5cccs5)C(C)(C)C4CC[C@]23C)O1 (stereo not given in full)
IC50 (Hepatitis B virus [1]): 18.2 µM | IC50 (Hepatitis B virus [2]): 16.5 µM | IC50 (Hepatitis B virus [3]): 30.8 µM
